The series in a line: Partition coefficient, log P of the compound. The series is classed as physicochemical. The following applies: octanol/water.

The logP is the decadic logarithm of the partition coefficient of the neutral form, usually between octanol and water. Higher therefore signals higher lipophilicity. The compound `CCOC(=O)C1(C)CCC=[N+]1[O-]` (configuration not stated) showed a lipophilicity (logP) of 0.15.
Consider `CCOC(=O)C1(CC)C(C)CC=[N+]1[O-]` (mixture of isomers), for which the logP amounted to 1.07.
`CCOC(=O)C1(C)C(CC)CC=[N+]1[O-]` (mixture of isomers) displayed a logP of 1.34.
`CCOC(=O)[C@]1(C)C[C@@H](CC)C=[N+]1[O-]` (relative stereo) registered a logP of 1.67.
`CCOC(=O)[C@@]1(CC)C[C@H](C)C=[N+]1[O-]` (relative stereo) returned a logP of 1.48.
In turn, `CCOC(=O)[C@]1(C)C[C@H](CC)C=[N+]1[O-]` (relative stereo) had a logP of 1.38.
`CCOC(=O)[C@@]1(CC)C[C@@H](C)C=[N+]1[O-]` (relative stereo) came in with a logP of 1.34.

The values above are taken from ChEMBL document CHEMBL1143022, “Free radical trapping properties of several ethyl-substituted derivatives of 5-ethoxycarbonyl-5-methyl-1-pyrroline N-oxide (EMPO)” (Bioorg Med Chem, 2007).
